# Measured values reported in patent US9096560B2, “5-heterocyclylalkyl-3-hydroxy-2-phenylcyclopent-2-enones as herbicides” (Syngenta Limited, priority 2008, dated 2015).
# What was measured:
# Format in all cases: in vivo
# [1] = test system: Alopecurus myosuroides (ALOMY); assay: Example B post-emergence herbicidal test, ALOMY; settings: Alopecurus myosuroides, 312 h, rate 250 g/ha, evaluated after 13 days, scale 0-100, read-out: Post-emergence activity ALOMY (100=total damage to plant; 0=no damage to plant)
# Procedure: (§1) Seeds of a variety of test species were sown in standard soil in pots. After cultivation for one day (pre-emergence) or after 8 days cultivation (post-emergence) under controlled conditions in a glasshouse (at 24/16° C., day/night; 14 hours light; 65% humidity), the plants were sprayed with an aqueous spray solution derived from the formulation of the technical active ingredient in acetone/water (50:50) solution containing 0.5% Tween 20 (polyoxyethelyene sorbitan monolaurate, CAS RN 9005-64-5). The test plants were then grown in a glasshouse under controlled conditions in a glasshouse (at 24/16° C., day/night; 14 hours light; 65% humidity) and watered twice daily. After 13 days for pre and post-emergence, the test was evaluated (100=total damage to plant; 0=no damage to plant). Lolium perenne (LOLPE), Alopecurus myosuroides (ALOMY), Echinochloa crus-galli (ECHCG), Avena fatua (AVEFA) Post-Emergence Activity
# [2] = test system: Lolium perenne (LOLPE); assay: Example B pre-emergence herbicidal test, LOLPE; settings: Lolium perenne, 312 h, rate 250 g/ha, evaluated after 13 days, 100=total damage to plant, 0=no damage to plant
# Procedure: as §1, with “Pre-Emergence” for “Post-Emergence”
# [3] = test system: Avena fatua (AVEFA); assay: Example B post-emergence herbicidal test, AVEFA; settings: Avena fatua, 312 h, rate 250 g/ha, evaluated after 13 days, scale 0-100, read-out: Post-emergence activity AVEFA (100=total damage to plant; 0=no damage to plant)
# Procedure: as §1
# [4] = test system: Echinochloa crus-galli (ECHCG); assay: Example B post-emergence herbicidal test, ECHCG; settings: Echinochloa crus-galli, 312 h, rate 250 g/ha, evaluated after 13 days, scale 0-100, read-out: Post-emergence activity ECHCG (100=total damage to plant; 0=no damage to plant)
# Procedure: as §1
# [5] = test system: Alopecurus myosuroides (ALOMY); assay: Example B pre-emergence herbicidal test, ALOMY; settings: Alopecurus myosuroides, 312 h, rate 250 g/ha, evaluated after 13 days, 100=total damage to plant, 0=no damage to plant
# Procedure: as §1, with “Pre-Emergence” for “Post-Emergence”
# [6] = test system: Avena fatua (AVEFA); assay: Example B pre-emergence herbicidal test, AVEFA; settings: Avena fatua, 312 h, rate 250 g/ha, evaluated after 13 days, 100=total damage to plant, 0=no damage to plant
# Procedure: as §1, with “Pre-Emergence” for “Post-Emergence”
# [7] = test system: Lolium perenne (LOLPE); assay: Example B post-emergence herbicidal test, LOLPE; settings: Lolium perenne, 312 h, rate 250 g/ha, evaluated after 13 days, scale 0-100, read-out: Post-emergence activity LOLPE (100=total damage to plant; 0=no damage to plant)
# Procedure: as §1
# [8] = test system: Echinochloa crus-galli (ECHCG); assay: Example B pre-emergence herbicidal test, ECHCG; settings: Echinochloa crus-galli, 312 h, rate 250 g/ha, evaluated after 13 days, 100=total damage to plant, 0=no damage to plant
# Procedure: as §1, with “Pre-Emergence” for “Post-Emergence”
Structure (SMILES),pest or weed control at 250 g/ha [1],pest or weed control at 250 g/ha [2],pest or weed control at 250 g/ha [3],pest or weed control at 250 g/ha [4],pest or weed control at 250 g/ha [5],pest or weed control at 250 g/ha [6],pest or weed control at 250 g/ha [7],pest or weed control at 250 g/ha [8]
Cc1cc(C)c(C2=C(OC(=O)OC(C)C)CC(CC3CCOC3)C2=O)c(C)c1 (stereo not drawn) [Compound P31],90%,100%,90%,100%,100%,90%,100%,100%
Cc1cc(C)c(C2=C(OC(=O)C(C)(C)C)CC(CCC3CCOCC3)C2=O)c(C)c1 (stereo not drawn) [Compound P34],80%,100%,90%,60%,90%,90%,100%,100%
Cc1cc(C)c(C2=C(OC(=O)C(C)(C)C)CC(CC3CCCOC3)C2=O)c(C)c1 (stereo not drawn) [Compound P37],90%,100%,90%,90%,100%,70%,90%,70%
CC(=O)OC1=C(c2c(C)cc(C)cc2C)C(=O)/C(=C/C2CCN(C(C)=O)C2)C1 (stereo not drawn) [Compound P42],60%,40%,70%,70%,30%,0%,40%,30%
COC(=O)OC1=C(c2c(C)cc(C)cc2C)C(=O)C(CC2CCOCC2)C1 (stereo not drawn) [Compound P45],100%,100%,100%,90%,100%,100%,100%,100%
Cc1cc(C)c(C2=C(OS(C)(=O)=O)C/C(=C\C3CCN(S(C)(=O)=O)C3)C2=O)c(C)c1 (stereo not drawn) [Compound P46],90%,90%,90%,70%,70%,60%,80%,100%
CCSC(=O)OC1=C(c2c(C)cc(C)cc2C)C(=O)/C(=C/C2CCN(C(=O)SCC)C2)C1 (stereo not drawn) [Compound P47],70%,60%,60%,50%,30%,50%,60%,60%
Cc1cc(C)c(C2=C(OC(=O)c3ccccc3)C/C(=C\C3CCN(C(=O)c4ccccc4)C3)C2=O)c(C)c1 (stereo not drawn) [Compound P48],90%,80%,100%,90%,70%,60%,90%,40%
Cc1cc(C)c(C2=C(OC(=O)C(C)(C)C)CC(CC3COCCO3)C2=O)c(C)c1 (stereo not drawn) [Compound P49],80%,100%,90%,100%,80%,60%,100%,100%
